Data published in patent publication US10722514B2 (FLX Bio, Inc., priority 2017, dated 2020).
Structures can show the parent of a compound that is named as a salt.

The molecules below were run against T1, recombinant full-length USP7 (Homo sapiens, UniProt Q93009) (assay: USP7-mediated ubiquitin-rhodamine cleavage assay). Details: recombinant full-length USP7 62 pM; ubiquitin-rhodamine 100 nM; 30-minute incubation with compound, 1 hour reaction at room temperature; read-out: Potency: USP7 IC50.
T1 construct: A 25 μl reaction volume containing recombinant full-length USP7 (62 pM)
T1 sequence (Q93009 whole entry): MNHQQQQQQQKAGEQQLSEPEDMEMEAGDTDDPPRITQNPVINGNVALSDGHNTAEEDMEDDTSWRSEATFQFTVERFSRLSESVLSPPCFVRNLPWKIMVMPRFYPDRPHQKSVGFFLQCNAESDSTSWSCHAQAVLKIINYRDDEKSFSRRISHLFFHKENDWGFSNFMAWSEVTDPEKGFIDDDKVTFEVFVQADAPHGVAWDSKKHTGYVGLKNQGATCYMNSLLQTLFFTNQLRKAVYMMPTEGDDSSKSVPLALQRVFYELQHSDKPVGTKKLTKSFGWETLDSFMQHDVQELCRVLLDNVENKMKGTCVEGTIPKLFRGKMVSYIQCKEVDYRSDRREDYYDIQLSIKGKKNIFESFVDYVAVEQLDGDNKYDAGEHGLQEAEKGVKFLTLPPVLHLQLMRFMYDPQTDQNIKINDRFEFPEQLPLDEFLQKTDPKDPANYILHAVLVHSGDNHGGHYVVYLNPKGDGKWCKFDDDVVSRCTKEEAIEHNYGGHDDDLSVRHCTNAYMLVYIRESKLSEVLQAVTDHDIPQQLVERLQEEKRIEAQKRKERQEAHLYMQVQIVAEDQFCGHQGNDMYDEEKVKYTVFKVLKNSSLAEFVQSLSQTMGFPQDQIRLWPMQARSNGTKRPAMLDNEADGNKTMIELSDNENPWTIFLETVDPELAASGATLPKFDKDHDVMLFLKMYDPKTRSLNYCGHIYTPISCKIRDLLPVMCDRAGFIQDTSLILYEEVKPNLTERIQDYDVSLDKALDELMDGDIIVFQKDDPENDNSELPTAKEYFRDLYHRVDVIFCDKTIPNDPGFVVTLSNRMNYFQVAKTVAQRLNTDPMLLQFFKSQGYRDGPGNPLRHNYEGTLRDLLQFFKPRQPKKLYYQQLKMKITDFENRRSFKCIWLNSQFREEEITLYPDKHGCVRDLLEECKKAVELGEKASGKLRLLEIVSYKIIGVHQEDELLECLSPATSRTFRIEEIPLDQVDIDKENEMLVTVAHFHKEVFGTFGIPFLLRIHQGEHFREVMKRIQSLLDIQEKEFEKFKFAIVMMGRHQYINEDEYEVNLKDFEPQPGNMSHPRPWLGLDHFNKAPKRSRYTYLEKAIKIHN
Assay type: biochemical
Outline: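 Compounds are first incubated with 62 pM enzyme for 30 min at room temperature in pH 7.3 HEPES buffer containing TCEP and BSA. Cleavage of 100 nM ubiquitin-rhodamine proceeds for 1 h before an acid quench, and IC50 is derived from fluorescence.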

Row | IC50 | Compound
1 | < 1000 nM | Cc1cc(Cl)cc(-c2ccnc3cc(Cn4c(=O)ccn(CC(F)(F)F)c4=O)sc23)c1O[C@@H]1CCNC[C@@H]1C [Example 173, 3-((7-(5-Chloro-3-methyl-2-(((3S,4R)-3-methylpiperidin-4-yl)oxy)phenyl)thieno[3,2-b]pyridin-2-yl)methyl)-1-(2,2,2-trifluoroethyl)pyrimidine-2,4(1H,3H)-dione]
2 | < 1000 nM | Cc1cc(Cl)cc(-c2ccnc3cc(CN4C(=O)C5CC5C4=O)sc23)c1O[C@H]1CC[C@H](C)NC1 (stereo partly drawn) [Example 305, 3-[[7-[5-chloro-3-methyl-2-[[(3S,6S)-6-methyl-3-piperidyl]oxy]phenyl]thieno[3,2-b]pyridin-2-yl]methyl]-3-azabicyclo[3.1.0]hexane-2,4-dione; 2,2,2-trifluoroacetic acid]
3 | < 1000 nM | Cc1cc(Cl)cc(-c2ccnc3cc(Cn4c(=O)cc[nH]c4=O)sc23)c1O[C@@H]1CNC[C@@H]1F [Example 153, 3-((7-(5-Chloro-2-(((3R,4S)-4-fluoropyrrolidin-3-yl)oxy)-3-methylphenyl)thieno[3,2-b]pyridin-2-yl)methyl)pyrimidine-2,4(1H,3H)-dione]
4 | 10000 to 30000 nM | Cc1cc(Cl)cc(-c2ccnc3cc(CCN4C(=O)CCS4(=O)=O)sc23)c1OC1CCNCC1 [Example 219, 2-(2-(7-(5-chloro-3-methyl-2-(piperidin-4-yloxy)phenyl)thieno[3,2-b]pyridin-2-yl)ethyl)isothiazolidin-3-one 1,1-dioxide]
5 | 1000 to 10000 nM | Cc1cc(Cl)cc(-c2ccnc3cc(CO)sc23)c1OC1CC2CNC1C2 (stereo not shown) [Example 165, (7-(2-((2-Azabicyclo[2.2.1]heptan-6-yl)oxy)-5-chloro-3-methylphenyl)thieno[3,2-b]pyridin-2-yl)methanol]
6 | 10000 to 30000 nM | Cc1cc2nccc(-c3cc(C#N)cc(C)c3O[C@H]3CCCNC3)c2s1 [Example 182, (S)-3-Methyl-5-(2-methylthieno[3,2-b]pyridin-7-yl)-4-(piperidin-3-yloxy)benzonitrile]
7 | 10000 to 30000 nM | CCO[C@H]1CNC[C@H]1Oc1c(C)cc(Cl)cc1-c1ccnc2cc(CO)sc12 [Example 73, (7-(5-Chloro-2-(((3R,4S)-4-ethoxypyrrolidin-3-yl)oxy)-3-methylphenyl)thieno[3,2-b]pyridin-2-yl)methanol]
8 | > 30000 nM | Cc1cc(Cl)cc(-c2ccnc3cc(CO)sc23)c1OC1CCCNC1=O (stereo not shown) [Example 200, 3-(4-Chloro-2-(2-(hydroxymethyl)thieno[3,2-b]pyridin-7-yl)-6-methylphenoxy)piperidin-2-one]
9 | < 1000 nM | Cc1cc(Cl)cc(-c2ccnc3cc(CN4C(=O)CCC4=O)sc23)c1O[C@@H]1CNC[C@@H]1N=[N+]=[N-] [Example 83, 1-((7-(2-(((3R,4S)-4-Azidopyrrolidin-3-yl)oxy)-5-chloro-3-methylphenyl)thieno[3,2-b]pyridin-2-yl)methyl)pyrrolidine-2,5-dione]
10 | 1000 to 10000 nM | CCC(O)c1cc2nccc(-c3cc(Cl)cc(C)c3OC3CCN(C)CC3)c2s1 (stereo not shown) [Example 188, 1-(7-(5-Chloro-3-methyl-2-((1-methylpiperidin-4-yl)oxy)phenyl)thieno[3,2-b]pyridin-2-yl)propan-1-ol]
11 | < 1000 nM | CCN1C[C@H](F)[C@H](Oc2c(C)cc(Cl)cc2-c2ccnc3cc(CN4C(=O)C5CC5C4=O)sc23)C1 (stereo partly drawn) [Example 310, 3-[[7-[5-chloro-2-[(3R,4S)-1-ethyl-4-fluoro-pyrrolidin-3-yl]oxy-3-methyl-phenyl]thieno[3,2-b]pyridin-2-yl]methyl]-3-azabicyclo[3.1.0]hexane-2,4-dione]
12 | < 1000 nM | Cc1cc(C#N)cc(-c2ccnc3cc(CN4C(=O)CCS4(=O)=O)sc23)c1O[C@@H]1CNC[C@@H]1F [Example 114, 3-(2-((1,1-Dioxido-3-oxoisothiazolidin-2-yl)methyl)thieno[3,2-b]pyridin-7-yl)-4-(((3R,4S)-4-fluoropyrrolidin-3-yl)oxy)-5-methylbenzonitrile]
13 | < 1000 nM | Cc1cc(Cl)cc(-c2ccnc3cc(CN4C(=O)CCC4=O)sc23)c1O[C@@H]1CCN(C)C[C@@H]1C [Example 308, 1-[[7-[5-chloro-2-[[(3S,4R)-1,3-dimethyl-4-piperidyl]oxy]-3-methyl-phenyl]thieno[3,2-b]pyridin-2-yl]methyl]pyrrolidine-2,5-dione]
14 | 10000 to 30000 nM | OCc1cc2nccc(-c3cc(F)cc(Br)c3O[C@H]3CCCNC3)c2s1 [Example 169, (S)-(7-(3-Bromo-5-fluoro-2-(piperidin-3-yloxy)phenyl)thieno[3,2-b]pyridin-2-yl)methanol]
15 | 10000 to 30000 nM | Cc1cc(Cl)cc(-c2ccnc3ccsc23)c1OC1CCCCNC1 (stereo not shown) [Example 264, 7-(2-(Azepan-3-yloxy)-5-chloro-3-methylphenyl)thieno[3,2-b]pyridine]
16 | < 1000 nM | Cc1cc(Cl)cc(-c2ccnc3cc([C@H](C)n4c(=O)ccn(C)c4=O)sc23)c1O[C@H]1CCCNC1 [Example 287, 3-[(1S)-1-[7-[5-chloro-3-methyl-2-[[(3S)-3-piperidyl]oxy]phenyl]thieno[3,2-b]pyridin-2-yl]ethyl]-1-methyl-pyrimidine-2,4-dione; 2,2,2-trifluoroacetic acid]
17 | < 1000 nM | Cc1cc(Cl)cc(-c2ccnc3cc(CN4C(=O)C5C(C4=O)C5(C)C)sc23)c1O[C@H]1CCNC[C@H]1F (stereo partly drawn) [Example 392, 3-[[7-[5-chloro-2-[[(3R,4S)-3-fluoro-4-piperidyl]oxy]-3-methyl-phenyl]thieno[3,2-b]pyridin-2-yl]methyl]-6,6-dimethyl-3-azabicyclo[3.1.0]hexane-2,4-dione; 2,2,2-trifluoroacetic acid]
18 | < 1000 nM | Cc1cc(Cl)cc(-c2ncnc3cc(CN4C(=O)C5C(C4=O)C5(C)C)sc23)c1O[C@@H]1CNC[C@@H]1C (stereo partly drawn) [Example 349, 3-[[4-[5-chloro-3-methyl-2-[(3S,4S)-4-methylpyrrolidin-3-yl]oxy-phenyl]thieno[3,2-d]pyrimidin-6-yl]methyl]-6,6-dimethyl-3-azabicyclo[3.1.0]hexane-2,4-dione]

Same assay, conditions: recombinant full-length USP7 62 pM; ubiquitin-rhodamine 100 nM; 30-minute incubation, 1 hour reaction at room temperature; read-out: Potency (USP7 IC50)

Row | Compound | IC50
19 | Cc1cc(Cl)cc(-c2ccnc3cc(Cn4c(=O)ccn(CC(F)(F)F)c4=O)sc23)c1OC1CC(N2CCC[C@H]2CF)C1 (stereo partly drawn) [Example 687, 3-[[7-[5-chloro-2-[3-[(2S)-2-(fluoromethyl)pyrrolidin-1-yl]cyclobutoxy]-3-methyl-phenyl]thieno[3,2-b]pyridin-2-yl]methyl]-1-(2,2,2-trifluoroethyl)pyrimidine-2,4-dione; 2,2,2-trifluoroacetic acid] | < 1000 nM

Same assay, conditions: recombinant full-length USP7 62 pM; ubiquitin-rhodamine 100 nM; 30-minute pre-incubation, 1 hour reaction at room temperature; read-out: Potency (USP7 IC50)

Row | IC50 | Compound
20 | < 1000 nM | Cc1cc(Cl)cc(-c2ccnc3cc(Cn4c(=O)ccn(C)c4=O)sc23)c1O[C@@H]1CCN[C@@H](C)C1 [Example 495, 3-[[7-[5-chloro-3-methyl-2-[[(2S,4R)-2-methyl-4-piperidyl]oxy]phenyl]thieno[3,2-b]pyridin-2-yl]methyl]-1-methyl-pyrimidine-2,4-dione]
21 | 1000 to 10000 nM | Cc1c(F)c(Cl)cc(-c2ccnc3cc(Cn4c(=O)ccn(C)c4=O)sc23)c1O[C@H]1CCCNC1 [Example 435, 3-[[7-[5-chloro-4-fluoro-3-methyl-2-[[(3S)-3-piperidyl]oxy]phenyl]thieno[3,2-b]pyridin-2-yl]methyl]-1-methyl-pyrimidine-2,4-dione dihydrochloride]
22 | < 1000 nM | Cc1cc(Cl)cc(-c2ccnc3cc(Cn4c(=O)c(F)cn(C)c4=O)sc23)c1O[C@@H]1CNC[C@@H]1F [Example 470, 3-[[7-[5-chloro-2-[(3R,4S)-4-fluoropyrrolidin-3-yl]oxy-3-methyl-phenyl]thieno[3,2-b]pyridin-2-yl]methyl]-5-fluoro-1-methyl-pyrimidine-2,4-dione]
23 | < 1000 nM | CC[C@H]1C[C@@H](Oc2c(C)cc(Cl)cc2-c2ccnc3cc(Cn4c(=O)ccn(C)c4=O)sc23)CCN1 [Example 610, 3-[[7-[5-chloro-2-[[(2S,4S)-2-ethyl-4-piperidyl]oxy]-3-methyl-phenyl]thieno[3,2-b]pyridin-2-yl]methyl]-1-methylpyrimidine-2,4-dione]
24 | < 1000 nM | Cc1cc(Cl)cc(-c2ccnc3cc(Cn4c(=O)ccn(C)c4=O)sc23)c1OC1CNCC(F)(F)C1 (stereo not shown) [Example 442, 3-[[7-[5-chloro-2-[(5,5-difluoro-3-piperidyl)oxy]-3-methyl-phenyl]thieno[3,2-b]pyridin-2-yl]methyl]-1-methyl-pyrimidine-2,4-dione; 2,2,2-trifluoroacetic acid]
25 | < 1000 nM | Cc1cc(Cl)cc(-c2ccnc3cc(Cn4c(=O)ccn(C)c4=O)sc23)c1O[C@@H]1CN(CCO)C[C@@H]1F [Example 467, 3-[[7-[5-chloro-2-[(3R,4S)-4-fluoro-1-(2-hydroxyethyl)pyrrolidin-3-yl]oxy-3-methyl-phenyl]thieno[3,2-b]pyridin-2-yl]methyl]-1-methyl-pyrimidine-2,4-dione; 2,2,2-trifluoroacetic acid]
26 | < 1000 nM | Cc1cc(C#N)cc(-c2ccnc3cc(Cn4c(=O)ccn(C)c4=O)sc23)c1OC1CCNCC1 [Example 454, 3-methyl-5-[2-[(3-methyl-2,6-dioxo-pyrimidin-1-yl)methyl]thieno[3,2-b]pyridin-7-yl]-4-(4-piperidyloxy)benzonitrile]
27 | < 1000 nM | CCN1CC[C@H](Oc2c(C)cc(Cl)cc2-c2ccnc3cc(Cn4c(=O)ccn(C)c4=O)sc23)[C@@H](F)C1 [Example 482, 3-[[7-[5-chloro-2-[[(3S,4S)-1-ethyl-3-fluoro-4-piperidyl]oxy]-3-methyl-phenyl]thieno[3,2-b]pyridin-2-yl]methyl]-1-methyl-pyrimidine-2,4-dione; 2,2,2-trifluoroacetic acid]

Row | Compound | IC50
28 | Cc1cc(Cl)cc(-c2ccnc3cc(Cn4c(=O)ccn(CC(F)(F)F)c4=O)sc23)c1OC1CCCC1 [Example 664, 3-[[7-[5-chloro-2-(cyclopentoxy)-3-methyl-phenyl]thieno[3,2-b]pyridin-2-yl]methyl]-1-(2,2,2-trifluoroethyl)pyrimidine-2,4-dione] | < 1000 nM
